Test results published in paper PMC3583349 (Pest management science, 2012).
Like-named read-outs stand apart in the source and are kept apart here.

Tests used:
[1] = biological target: T1, CpGSTD2 (Culex pipiens, UniProt H9M8E4); experiment: biochemical
T1 sequence (H9M8E4 1-214): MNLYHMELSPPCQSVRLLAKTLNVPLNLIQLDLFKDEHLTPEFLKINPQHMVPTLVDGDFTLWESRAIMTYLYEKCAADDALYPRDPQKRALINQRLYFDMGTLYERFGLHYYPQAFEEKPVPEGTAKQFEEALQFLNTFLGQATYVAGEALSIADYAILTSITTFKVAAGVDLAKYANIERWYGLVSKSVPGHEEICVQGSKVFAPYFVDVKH

[2] = test system: GST-1b; details: cited from earlier work
[3] = biological target: T2, CpGSTD1 (Culex pipiens, UniProt H9M8E3); experiment: biochemical
T2 sequence (H9M8E3 1-211): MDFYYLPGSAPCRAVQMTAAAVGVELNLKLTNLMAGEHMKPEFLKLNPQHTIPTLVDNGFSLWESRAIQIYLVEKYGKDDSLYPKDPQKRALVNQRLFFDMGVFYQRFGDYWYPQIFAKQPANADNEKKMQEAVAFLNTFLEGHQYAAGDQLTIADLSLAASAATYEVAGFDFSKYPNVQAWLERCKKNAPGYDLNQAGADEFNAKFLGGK

[4] = test system: GST-2; details: cited from earlier work
[5] = biological target: T1, CpGSTD2; experiment: Permethrin metabolism assay; type: biochemical; details: for Ratio of the area under the curve relative to lambda cyhalothrin: after 2 h incubation at 30°C with CpGSTD2, 1 μM permethrin, HPLC
[6] = biological target: T2, CpGSTD1; experiment: Permethrin metabolism assay; type: biochemical; details: for Ratio of the area under the curve relative to lambda cyhalothrin: after 2 h incubation at 30°C with CpGSTD1, 1 μM permethrin, HPLC
[7] = test system: AdGSTD1-1; details: cited from earlier work
[8] = test system: AgGSTD1-6; details: cited from earlier work
[9] = biological target: T1, CpGSTD2
[10] = biological target: T2, CpGSTD1; details: for Km: pH 6.5
[11] = biological target: T1, CpGSTD2; experiment: Peroxidase activity assay with CMHP, CpGSTD2; type: biochemical; details: pH 7.5; conditions where a rate of at least 0.1 μmol min^−1 mg^−1 could be detected with CpGSTD1
[12] = biological target: T2, CpGSTD1; experiment: Peroxidase activity assay with CMHP, CpGSTD1; type: biochemical; details: 0.125 to 1.0 mM CMHP, 7.5 mM reduced GSH, 25°C, pH 6.5
[13] = biological target: T2, CpGSTD1; details: pH 6.5
[14] = biological target: T1, CpGSTD2; remark: listed apart in the source
[15] = biological target: T2, CpGSTD1; experiment: DDT dehydrochlorination assay, CpGSTD1; type: biochemical; details: over a period of 2 h, 1 μM DDT, 15 mM reduced GSH, 30°C, pH 6.5, HPLC
[16] = substrate: O=[N+]([O-])c1ccc(Cl)c(Cl)c1; experiment: purified protein, by the assay type; details: pH 7.5; 30.0 °C
[17] = 2 h, 30°C, conditions where a rate of 7 pmol min^−1 mg^−1 could have been reliably detected
[18] = varying substrate 7.8 to 750 μM, 5 mM reduced GSH, 30°C, pH 7.5

C=C(CC)C(=O)c1ccc(OCC(=O)O)c(Cl)c1Cl [ethacrynic acid (EA), ethacrynic acid]
IC50 [1]: 2.5 ± 0.1 µM

O=C(/C=C/c1ccccc1)c1ccccc1 [chalcone]
IC50 [2]: 166 µM | IC50 [1]: 4 ± 0.2 µM | IC50 [3]: 12.1 ± 0.4 µM | IC50 [4]: 165 µM

CC1(C)C(C=C(Cl)Cl)C1C(=O)OCc1cccc(Oc2ccccc2)c1 (centres unmarked) [permethrin]
metabolism of permethrin [5, 17]: neither CpGSTD1 nor CpGSTD2 are able to metabolize | metabolism of permethrin [6, 17]: neither CpGSTD1 nor CpGSTD2 are able to metabolize

O=[N+]([O-])c1ccc(Cl)c([N+](=O)[O-])c1 [CDNB, 1-chloro-2,4-dinitrobenze]
catalytic efficiency ratio (kcat/KM) [7]: 48000 M⁻¹ s⁻¹ | catalytic efficiency ratio (kcat/KM) [8]: 790000 M⁻¹ s⁻¹ | kcat ([9]; 5 mM reduced GSH, 30°C, pH 7.5): 7.0 s⁻¹ | catalytic efficiency (kcat/KM) higher with CDNB than with DCNB ([9]; CpGSTD2): at least 100 fold | turnover of CDNB faster than DCNB ([9]; CpGSTD2, CDNB versus DCNB): about 18 fold | Km [9, 18]: 30 ± 2 µM | Vmax [9, 18]: 18 ± 0.2 µmol/min/mg | catalytic efficiency (kcat/KM) higher with CDNB than with DCNB ([10]; CpGSTD1): at least 100 fold | turnover of CDNB faster than DCNB ([10]; CpGSTD1, CDNB versus DCNB): about 230 fold | turnover of CDNB by CpGSTD1 faster than by CpGSTD2 ([10]; CpGSTD1 versus CpGSTD2): about 3 fold | Km [10]: 140 ± 10 µM

CC1(C)[C@H](C(=O)OCc2cccc(Oc3ccccc3)c2)[C@@H]1C=C(Cl)Cl [cis-permethrin]
Ratio of the area under the curve relative to lambda cyhalothrin [5]: 0.51 ± 0.03 | Ratio of the area under the curve relative to lambda cyhalothrin [6]: 0.47 ± 0.02

CC(C)(OO)c1ccccc1 [CMHP, cumene hydroperoxide]
activity towards CMHP (peroxidase activity) [11]: no detectable activity | rate of CMHP reduction (peroxidase activity) [12]: 1.6 µmol/min/mg

CC1(C)[C@H](C=C(Cl)Cl)[C@H]1C(=O)OCc1cccc(Oc2ccccc2)c1 [trans-permethrin]
Ratio of the area under the curve relative to lambda cyhalothrin [5]: 0.29 ± 0.02 | Ratio of the area under the curve relative to lambda cyhalothrin [6]: 0.24 ± 0.01

O=[N+]([O-])c1ccc(Cl)c(Cl)c1 [DCNB, 1,2-dichloro-4-nitrobenzene]
Km [10]: 170 ± 10 µM

CCCCCCSC[C@H](NC(=O)CC[C@H](N)C(=O)O)C(=O)NCC(=O)O [S-hexyl glutathione, S-hexylglutathione]
IC50 [13]: 68 ± 3 µM | IC50 [14]: 0.24 µM | IC50 ([14]; pH 7.5): 0.24 ± 0.01 µM

O=C(/C=C/c1ccc(O)cc1)c1ccccc1 [4-hydroxy chalcone, 4-hydroxychalcone]
IC50 [1]: 5 ± 0.2 µM | IC50 [3]: 16 ± 1 µM

Clc1ccc(C(c2ccc(Cl)cc2)C(Cl)(Cl)Cl)cc1 [DDT, 1,1,1-Trichloro-2,2-bis(4-chlorophenyl)ethane]
rate of DDT metabolism to DDE [15]: 6.4 ± 0.6 nmol per mg protein

B1: CpGSTD2 (Culex pipiens) (protein)
chain: T1 sequence (H9M8E4 1-214)
Km [16]: 220 ± 10 µM | Vmax [16]: 0.96 ± 0.02 µmol/min/mg | kcat [16]: 0.4 s⁻¹ | kcat/Km [16]: 1700 M⁻¹ s⁻¹
